Legend:
Antigen-Specific CTL = test: Immune response of antigen-specific CTL for peptide and tumor cell, vaccine a (Test 11); format: in vivo, mouse
Procedure: The immune response of CTL induced with a vaccine comprising the present compound in the presence of tumor cells was evaluated in the following procedure. The vaccine was administered to a HLA-A*02:01 transgenic mouse to prepare splenocyte comprising an antigen peptide-specific CTL, and the immune response was evaluated by incubating the spelenocyte in the presence of tumor cells and antigen peptides.
Specifically, vaccine a prepared like Test 6 was injected to a HLA-A*02:01 transgenic mouse intradermally at the tail base area in an amount for administering 300 μg of Compound of formula 4 per body and 225 μg of Peptide SEQ ID No. 3 per body. Or, in the step of preparing vaccine a, the compound prepared in Example 3 was added to the diluted peptide solution to prepare a vaccine, and the prepared vaccine was injected to a HLA-A*02:01 transgenic mouse intradermally at the tail base area in an amount for administering 300 μg of Compound of formula 4 per body, 225 μg of Peptide SEQ ID No. 3 per body, and 32.5 ng of the compound prepared in Example 3 per body. The administrations were done twice, which had one week interval. One week after the final administration, the mice were sacrificed with CO2 gas, and then spleens removed from the mice. A splenocyte suspension was prepared from the spleens with Complete T-cell Medium (hereinafter, CTM). The splenocytes derived from each three mice per group were mixed. The mixed splenocytes were stained with an FITC-labeled anti-CD8 antibody (BD Pharmingen) and a PE-labeled HLA tetramer (MBL) against Peptide SEQ ID NO. 1, and analyzed for peptide-specific CTLs with a flow cytometer.
The peptide (SEQ ID No. 1) solution was added to a part of the splenocyte at a final concentration of 100 μg/mL, and the cells were stood for about one hour at 37° C., 5% CO2. After excess peptides were washed out with CTM, the peptide-pulsed splenocyte and unpulsed splenocyte were mixed at a ratio of 1:10, and the mixture was seeded on a U-bottom 96 well plate at 3.85×10^5 cells/well. A cell line (hereinafter, also referred to as LLC-HHD-WT1 tumor cells) was established by stably expressing HHD [a chimeric HLA of a human MHC (HLA-A*02:01) and a mouse MHC (H-2D^b)] and antigen peptide (SEQ ID No. 1) in a mouse Lewis lung carcinoma cell line LLC as tumor cells. X-ray (50 Gy) was irradiated to the LLC-HHD-WT1 tumor cells, and then the LLC-HHD-WT1 tumor cells were cultured in the presence of a mouse recombinant IFN-γ (100 ng/mL) for about two days and washed with CTM. […] The concentration of mouse IFN-γ in the culture supernatant was measured with an ELISA kit (R&D Systems). […] 1, and analyzed for peptide-specific CTLs with a flow cytometer.

[1] = tested on: mouse bone marrow-derived dendritic cell; test: Activation of mouse bone marrow-derived dendritic cell, cytokine/chemokine production (Test 4); format: cell-based; details: 200 nmol/L, one day, compared with only DMSO
Procedure: Myeloid cells were collected from the femur and tibia of HLA-A*02:01 transgenic mouse (C57BL/6CrHLA-A2.1DR1), and then suspended in RPMI 1640 medium with 10% fetal bovine serum (FBS) and 10 ng/mL of GM-CSF. The dendritic cells in the myeloid cells were incubated at 37° C. under an atmosphere of 5% CO2 for induction of differentiation. Seven days after the incubation, the cells were collected. After observing the expression of CD11c on the cell surface by flow cytometry, the cells were cryopreserved. Cryopreserved mouse bone marrow-derived dendritic cells were reconstituted, suspended in RPMI 1640 medium with 10% FBS, and seeded on a U-bottom 96 well plate at 5×10^5 cells/well. The compound prepared in Example 3 was added in the presence of 0.1% (v/v) DMSO to the wells at a final concentration of 200 nmol/L. The plate was incubated at 37° C. under an atmosphere of 5% CO2. One day after the incubation, the culture supernatant was collected. The concentration of cytokine and chemokine (IL-1p, IL-6, IL-12p40, IL-12p70, IP-10, MIP-1α, MIP-1β, Rantes, and TNFα) which were included in each culture supernatant was measured with Milliplex Mouse Cytokine/Chemokine Magnetic Bead Panel kit (Millipore) and Luminex system in accordance with the manufacturer's protocol. […]

CCCCOc1nc(N)c2[nH]c(=O)n(Cc3ccc(CN(C)CCOCCOCCOCCOCCO)cc3)c2n1 [Example 3, 6-amino-2-butoxy-9-{[4-(16-hydroxy-2-methyl-5,8,11,14-tetraoxa-2-azahexadecan-1-yl)phenyl]methyl}-7,9-dihydro-8H-purin-8-one]
amount of IFN-γ produced from the CTL in the mixed culture, relative to vaccine a without compound (Antigen-Specific CTL; about three days culture with LLC-HHD-WT1 tumor cells and Peptide SEQ ID No. 1, ELISA, average of 3 wells): 4.9 times | difference in CTL specific to Peptide SEQ ID No. 1 versus vaccine a without compound (Antigen-Specific CTL; after about three days culture with LLC-HHD-WT1 tumor cells and Peptide SEQ ID No. 1): 3.6 times | CTLs specific to Peptide (SEQ ID No. 1) in splenocyte, relative to vaccine a without compound (Antigen-Specific CTL; before culture, flow cytometry (tetramer), 32.5 ng per body in vaccine a, twice): 1.7 times | change of CTL specific to Peptide SEQ ID No. 1 on culture with tumor cells (Antigen-Specific CTL; splenocytes mixed with tumor cells and cultured in the presence of Peptide SEQ ID No. 1): increased | yield of cytokine and chemokine (IL-1β, IL-6, IL-12p40, IL-12p70, IP-10, MIP-1α, MIP-1β, Rantes, TNFα) [1]: higher

— patent US20220241409A1, “WATER SOLUBLE ADJUVANT AND COMPOSITION CONTAINING SAME” (Sumitomo Dainippon Pharma Co., Ltd., priority 2019, published 2022)
